Laboratory results from ChEMBL document CHEMBL4422618, “Translational impact of novel widely pharmacological characterized mofezolac-derived COX-1 inhibitors combined with bortezomib on human multiple myeloma cell lines viability” (Eur J Med Chem, 2019).
The source made the active and inactive calls. No cut-off for these calls is given here.

Columns and labels:
[1] = molecular target: T1, Prostaglandin G/H synthase 1 (Ovis aries) (UniProt P05979); assay: Inhibition of ovine COX1 at 50 uM using arachidonic acid as substrate by colorimetric assay relative to control
T1 sequence (whole entry): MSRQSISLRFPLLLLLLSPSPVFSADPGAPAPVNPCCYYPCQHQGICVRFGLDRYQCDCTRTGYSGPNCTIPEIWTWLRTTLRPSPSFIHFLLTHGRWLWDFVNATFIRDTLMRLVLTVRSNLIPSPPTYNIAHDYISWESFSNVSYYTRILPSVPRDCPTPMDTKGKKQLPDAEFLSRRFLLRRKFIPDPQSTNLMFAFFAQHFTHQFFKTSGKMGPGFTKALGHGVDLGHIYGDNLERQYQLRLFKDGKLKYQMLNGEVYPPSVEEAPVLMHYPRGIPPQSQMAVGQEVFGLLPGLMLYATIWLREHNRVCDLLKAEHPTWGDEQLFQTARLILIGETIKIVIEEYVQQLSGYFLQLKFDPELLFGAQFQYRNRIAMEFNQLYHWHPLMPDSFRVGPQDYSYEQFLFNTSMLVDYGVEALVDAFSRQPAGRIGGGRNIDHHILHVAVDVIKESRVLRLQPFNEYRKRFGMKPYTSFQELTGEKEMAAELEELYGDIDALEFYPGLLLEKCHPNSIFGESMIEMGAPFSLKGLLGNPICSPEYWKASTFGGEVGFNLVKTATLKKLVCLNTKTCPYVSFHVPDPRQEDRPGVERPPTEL

[2] = molecular target: T2, Prostaglandin G/H synthase 1 (Ovis aries, UniProt P05979); assay: Inhibition of ovine COX1 using arachidonic acid as substrate by colorimetric assay
T2 sequence (P05979 whole entry): T1 sequence (whole entry)

[3] = molecular target: T3, Prostaglandin G/H synthase 2 (Homo sapiens, UniProt P35354); assay: Inhibition of human COX2 using arachidonic acid as substrate by colorimetric assay
T3 sequence (P35354 whole entry): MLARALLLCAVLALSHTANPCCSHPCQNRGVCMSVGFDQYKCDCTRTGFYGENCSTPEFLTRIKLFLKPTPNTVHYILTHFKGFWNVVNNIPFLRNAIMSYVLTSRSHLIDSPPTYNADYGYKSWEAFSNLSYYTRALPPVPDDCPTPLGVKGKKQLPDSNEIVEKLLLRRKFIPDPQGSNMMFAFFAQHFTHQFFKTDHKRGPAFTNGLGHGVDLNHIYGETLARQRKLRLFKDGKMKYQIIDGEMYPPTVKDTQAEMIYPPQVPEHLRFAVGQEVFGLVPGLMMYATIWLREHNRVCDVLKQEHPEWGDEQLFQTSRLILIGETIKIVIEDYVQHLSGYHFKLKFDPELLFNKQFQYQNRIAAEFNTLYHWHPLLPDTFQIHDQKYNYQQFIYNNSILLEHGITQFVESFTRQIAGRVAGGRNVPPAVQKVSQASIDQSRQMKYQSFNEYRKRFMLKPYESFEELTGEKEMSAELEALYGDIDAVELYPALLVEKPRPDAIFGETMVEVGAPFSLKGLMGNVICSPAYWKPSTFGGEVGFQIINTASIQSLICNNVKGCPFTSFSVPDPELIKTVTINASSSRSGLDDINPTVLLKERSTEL

[4] = molecular target: T4, Prostaglandin G/H synthase 2 (Homo sapiens) (UniProt P35354); assay: Inhibition of human COX2 at 50 uM using arachidonic acid as substrate by colorimetric assay relative to control
T4 sequence (whole entry): T3 sequence (P35354 whole entry)

[5] = Selectivity index, ratio of IC50 for human COX2 to IC50 for ovine COX1
[6] = Genotoxicity in Escherichia coli PQ37 at 500 uM after overnight incubation by SOS chromotest; assay type: toxicity
[7] = Genotoxicity in Escherichia coli PQ35 at 500 uM after overnight incubation by SOS chromotest; assay type: toxicity
[8] = test system: RPMI-8226; assay: Cytotoxicity against human RPMI8226 cells assessed as reduction in cell viability at 2 nM after 48 hrs by CCK8 assay relative to control; assay type: functional, cell-based
[9] = test system: RPMI-8226; assay: Cytotoxicity against human RPMI8226 cells assessed as reduction in cell viability at 2 nM after 48 hrs by CCK8 assay; assay type: functional, cell-based
[10] = test system: NCI-H929; assay: Cell cycle arrest in human NCI-H929 cells assessed as accumulation at S phase at 2 nM after 48 hrs by propidium iodide/RNase staining based flow cytometric method relative to control; assay type: functional
[11] = test system: NCI-H929; assay: Induction of apoptosis in human NCI-H929 cells assessed as late apoptotic cells at 2 nM after 48 hrs by Annexin-V/propidium iodide staining based flow cytometric method (reference value: 0.23%); assay type: functional
[12] = test system: NCI-H929; assay: Cell cycle arrest in human NCI-H929 cells assessed as accumulation at G0/G1 phase at 2 nM after 48 hrs by propidium iodide/RNase staining based flow cytometric method relative to control; assay type: functional
[13] = test system: RPMI-8226; assay: Induction of apoptosis in human RPMI8226 cells assessed as viable cells at 3 nM after 48 hrs by Annexin-V/propidium iodide staining based flow cytometric method (reference value: 98.7%); assay type: functional; details: RPMI-8226, 48 h, read-out: Activity
[14] = test system: NCI-H929; assay: Induction of apoptosis in human NCI-H929 cells assessed as necrotic cells at 2 nM after 48 hrs by Annexin-V/propidium iodide staining based flow cytometric method (reference value: 0.0034%); assay type: functional
[15] = test system: RPMI-8226; assay: Cytotoxicity against human RPMI8226 cells assessed as reduction in cell viability at 3 nM after 48 hrs by CCK8 assay relative to control; assay type: functional
[16] = test system: RPMI-8226; assay: Induction of apoptosis in human RPMI8226 cells assessed as late apoptotic cells at 3 nM after 48 hrs by Annexin-V/propidium iodide staining based flow cytometric method (reference value: 0.21%); assay type: functional
[17] = test system: RPMI-8226; assay: Induction of apoptosis in human RPMI8226 cells assessed as necrotic cells at 3 nM after 48 hrs by Annexin-V/propidium iodide staining based flow cytometric method (reference value: 0.090%); assay type: functional
[18] = test system: RPMI-8226; assay: Cell cycle arrest in human RPMI8226 cells assessed as accumulation at S phase at 3 nM after 48 hrs by propidium iodide/RNase staining based flow cytometric method; assay type: functional
[19] = test system: RPMI-8226; assay: Cell cycle arrest in human RPMI8226 cells assessed as accumulation at G0/G1 phase at 3 nM after 48 hrs by propidium iodide/RNase staining based flow cytometric method; assay type: functional
[20] = test system: NCI-H929; assay: Induction of apoptosis in human NCI-H929 cells assessed as viable cells at 2 nM after 48 hrs by Annexin-V/propidium iodide staining based flow cytometric method (reference value: 82.6%); assay type: functional; details: NCI-H929, 48 h, read-out: Activity
[21] = test system: RPMI-8226; assay: Induction of apoptosis in human RPMI8226 cells assessed as early apoptotic cells at 3 nM after 48 hrs by Annexin-V/propidium iodide staining based flow cytometric method (reference value: 1.05%); assay type: functional
[22] = test system: NCI-H929; assay: Induction of apoptosis in human NCI-H929 cells assessed as early apoptotic cells at 2 nM after 48 hrs by Annexin-V/propidium iodide staining based flow cytometric method (reference value: 17.1%); assay type: functional
[23] = molecular target: T1, Prostaglandin G/H synthase 1 (Ovis aries); assay: Inhibition of ovine COX1 at 10 uM using arachidonic acid as substrate by colorimetric assay relative to control
[24] = test system: Plasma; assay: Anticoagulant activity in human platelet poor plasma assessed as prothrombin time at 100 uM incubated for 15 mins at room temperature and subsequent incubation for 2 mins at 37 degreeC followed by PBS addition and measured after 3 mins for every secs in presence of calcium thromboplastin; assay type: functional
[25] = test system: Plasma; assay: Anticoagulant activity in human platelet poor plasma assessed as activated partial thromboplastin time at 100 uM incubated for 15 mins at room temperature and subsequent incubation for 2 mins at 37 degreeC followed by cephalin addition and measured after 2 mins for every secs in presence of CaCl2; assay type: functional

Compound	inhibition [1] [%]	IC50 [2] [µM]	IC50 [3] [µM]	further results
COc1ccc(-c2c(-c3ccc(F)cc3)noc2C)cc1	94	3	> 50	–
CS(=O)(=O)c1ccc(-c2noc(N)c2-c2ccc(F)cc2)cc1	–	> 50	> 50	–
COc1ccc(-c2c(-c3ccc(F)cc3)noc2N)cc1	83	13	> 50	–
O=[N+]([O-])c1cc[n+]([O-])c2ccccc12 [4-NITROQUINOLINE-1-OXIDE]	–	–	–	Activity [6]: Toxic; Activity [7]: Toxic
Cc1onc(-c2ccc([N+](=O)[O-])cc2)c1-c1ccc(F)cc1	–	> 50	> 50	–
CC(C)C[C@H](NC(=O)[C@H](Cc1ccccc1)NC(=O)c1cnccn1)B(O)O [BORTEZOMIB]	–	–	–	Activity [8]: Active; Activity [9]: Active; Activity [10]: 10%; Activity [11]: 0.14%; Activity [12]: 10%; viability at 0.003 µM [13]: 91.1%; Activity [14]: 0.033%; Activity [15]: 53%; Activity [16]: 0.11%; Activity [17]: 0.0918%; Activity [18]: inactive; Activity [19]: inactive; viability at 0.002 µM [20]: 51.1%; Activity [21]: 8.81%; Activity [22]: 48.7%
COc1ccc(-c2c(-c3ccc([N+](=O)[O-])cc3)noc2C)cc1	–	–	> 50	inhibition [23]: 36%
COc1ccc(-c2c(-c3ccc(N)cc3)noc2C)cc1	53	23	> 50	–
COc1ccc(-c2noc(N)c2-c2ccc(OC)cc2)cc1	89	8.3	> 50	–
COc1ccc(-c2c(-c3ccc(NC(C)=O)cc3)noc2CC(=O)O)cc1	79	12	> 50	–
O=C(NC[C@H]1CN(c2ccc(N3CCOCC3=O)cc2)C(=O)O1)c1ccc(Cl)s1 [RIVAROXABAN]	–	–	–	PT [24]: 300 s; APTT [25]: 300 s
COc1ccc(-c2c(-c3ccc(F)cc3)noc2CC(=O)O)cc1	92	7.5	> 50	–

Now from value to compound, other results behind:

inhibition [1] [%]	IC50 [2] [µM]	IC50 [3] [µM]	Compound	further results
71	12	> 50	Nc1onc(-c2ccc([N+](=O)[O-])cc2)c1-c1ccc(F)cc1	–
33	> 50	> 50	COc1ccc(-c2c(-c3ccc(N)cc3)noc2CC(=O)O)cc1	inhibition [4]: 42%
100	0.12	0.19	COc1ccc(-c2noc(CCO)c2-c2ccc(OC)cc2)cc1	Ratio IC50 [5]: 1.6; inhibition [4]: 82%
–	–	0.35	COc1ccc(-c2noc(C)c2-c2ccc(OC)cc2)cc1	Ratio IC50 [5]: 4.6
93	0.1	0.18	COc1ccc(-c2noc(CBr)c2-c2ccc(OC)cc2)cc1	inhibition [4]: 63%
100	0.35	0.3	COc1ccc(-c2noc(CF)c2-c2ccc(OC)cc2)cc1	inhibition [4]: 85%
24	> 50	0.07	Cc1onc(-c2ccc(S(C)(=O)=O)cc2)c1-c1ccc(F)cc1	inhibition [4]: 52%
